Source: patent US20050153381A1, “Immunocapture of mitochondrial protein complexes” (priority 2002, published 2005)

Tests used:
[1] = tested on: human fibroblasts (cell strain MRC5); format: cell-based
Procedure: Normal, human fibroblasts (cell strain MRC5) were treated with DCC for five to seven population doublings. Complex IV subunit I in treated fibroblasts was detected immunocytochemically with mAb RAC#18-1D6E1A8 using standard protocols (Janes et al., J. Histochem. Cytochem., 52: 1011-1018, 2004; RAC#18-1D6E1A8 is commercially available from Molecular Probes, MitoScience, and Abcam). Subunit I levels were determined relative to mitochondrial mass measured by porin content (a mitochondrial outer membrane protein encoded by nuclear DNA). Porin content was also determined immunocytochemically using porin-specific mAb 31HL (available from Calbiochem). mtDNA depletion in DCC-treated fibroblasts was detected using real time PCR and FISH with a mtDNA probe in accordance with commonly used methods (see, Janes et al., J. Histochem. Cytochem., 52: 1011-1018, 2004).

human mtDNA polymerase γ = human mtDNA polymerase γ (Homo sapiens, UniProt P54098); settings: cited from earlier work
[2] = molecular target: T1, C-V-IP (inhibitor protein IF1), human (UniProt Q9UII2)
T1 sequence: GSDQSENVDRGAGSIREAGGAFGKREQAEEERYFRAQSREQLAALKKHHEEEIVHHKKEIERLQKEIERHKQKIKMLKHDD

[3] = molecular target: T2, recombinant human IF1, His-tagged (UniProt Q9UII2)
T2 sequence: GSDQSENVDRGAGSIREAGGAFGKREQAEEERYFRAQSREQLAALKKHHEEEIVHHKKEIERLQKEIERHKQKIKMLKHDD

Complex IV = Complex IV (Bos taurus, UniProt P00396)
Procedure: (§1) Mitochondria (human heart, human fibroblast or bovine heart) were solubilized at 5 mg/ml mitochondrial protein, 1% wt/vol lauryl maltoside, 100 mM NaCl, 25 mM HEPES pH 7.5, and the protease inhibitors pepstatin (0.5 μg/ml), leupeptin (0.5 μg/ml) and PMSF (1 mM). The samples were incubated at 4° C. for 30 minutes and the insoluble material removed by centrifugation at 16,000×g for 20 minutes. Solubilized mitochondria were diluted to the desired concentration in 150 mM NaCl, 50 mM Tris-HCl, pH 7.5 containing 2.5% bovine serum albumin as a blocking and stabilization agent.
(§2) After the entire sample wicked up into the nitrocellulose (approximately 15 minutes), the stick was transferred to a second well containing 50 μl of wash buffer (150 mM NaCl, 50 mM Tris-HCl, pH 7.5), which was allowed to wick up the stick (approximately 15 minutes). The absorbent pad was then removed and the entire dipstick incubated in a tube containing 3 ml wash buffer for approximately 15 minutes. The washed dipstick (with the immunocaptured OXPHOS complex of interest) was then transferred to the appropriate enzyme reaction buffer to reveal enzyme activity as described below.
Complex IV. The Complex IV reaction buffer solution contained 0.5 mg/ml 3,3′ diaminobenzidine-tetrachloride (DAB) and 0.1 mM reduced cytochrome c in PBS, pH 7.4. […]

[4] = molecular target: T3, Complex IV (cytochrome c oxidase) (Bos taurus, UniProt P00396); assay: Complex IV (cytochrome c oxidase) activity, ferrocytochrome c oxidation at 550 nm; format: biochemical, bovine; settings: mitochondrial membranes exposed to up to 1600 μM; membranes and isolated enzyme (FIG. 24A)
T3 construct: from tissue; host or cells: bovine heart mitochondria
Procedure: 4. Fe^3Fe^2+ Catalyzed Oxidation of Mitochondria. Mitochondria at 5 mg/mL in 25 mM KH2PO4 pH 7.2, 5 mM MgCl2 were incubated for 0, 0.5, 1, 2, or 4 hours with 1 mM FeCl3/25 mM sodium ascorbate. Incubation could not be performed for less than 0.5 h because iron could only be removed by rapid dialysis, which was performed for 30 min against 25 mM potassium phosphate pH 7.2, 5 mM MgCl2 using 12000 Da MWCO dialysis membrane (Spectrapor). After oxidation, mitochondrial membranes were subjected to the Complex IV activity assay described below. The Complex IV enzyme was then isolated by the immunocapture extraction method above.
5. Peroxynitrite Catalyzed Oxidation of Mitochondria. […] Following this oxidative treatment, Complex IV activity was measured before and after Complex IV immunocapture.
6. […] Potassium cyanide-sensitive Complex IV activity was measured in bovine heart mitochondria or with immunopurified isolated enzyme. […] Reduced bovine heart cytochrome c was purified over a Sephadex G-15 (Pharmacia) column equilibrated with assay buffer, collected in 1 mL fractions, and the concentration measured at 550 nm in a Beckman DU7. The oxidation of ferrocytochrome c was followed at 550 nm in a 1 mL reaction vessel in the DU7 or in a 96 well plate (Corning) using a Victor2 1460 multi-plate reader (Perkin-Elmer) with a narrow band pass 550 nm filter. […]

Complex I = Complex I (Homo sapiens, UniProt P49821+P56556); settings: normal fibroblast Complex I; DPI in reaction buffer (FIG. 28)
Procedure: as §1, §2
Complex I. The Complex I reaction buffer solution contained 0.1 mg/ml NADH, 2.5 mg/ml NBT in 2 mM Tris-HCl, pH 7.4. […]

[5] = tested on: Complex I (NADH:UQ1 oxidoreductase); assay: Immunocaptured Complex I NADH:UQ1 oxidoreductase microplate activity assay; format: biochemical; settings: 16 μg heart mitochondria per well; 240 ng rotenone (FIG. 27)
Procedure: In brief, 1 μg mAb RAC#24-20D1AB7 was added per well (50 μl of a 20 μg/ml solution in PBS) on a protein G-coated 96-well plate, incubated overnight at 4° C., then washed three times with PBS. Then, heart mitochondria solubilized in lauryl maltoside as previously described and diluted in PBS were added at 16 μg (♦), 8 μg (▪), 4 μg (▴) and 0 μg (●) per well in 50 μl aliquots and incubated at room temperature for 2 hours. The wells then were washed three times with 200 μl/well of 20 mM Tris/HCl, pH 7.5, 50 mM KCl, 0.015% lauryl maltoside. A phospholipid solution (see below) was added at 40 μl/well, incubated for 45 minutes at 4° C. and then 200 μl of assay solution (25 mM KPi pH 7.2, 5 mM MgCl2, 2 mM KCN, 260 μM NADH, and 200 μM UQ1) was added directly to the phospholipid solution. The oxidation of NADH was measured by following the decrease of the absorbance at 340 nm. Absorbance changes were measured at 340 nm with a Victor2 from Perkin Elmer for two hours.
The phospholipid stock solution was made by mixing 0.76 ml of 10 mg/ml egg-yolk phosphatidyl choline, 0.38 ml of 5 mg/ml egg-yolk phosphatidylethanolamine, and 0.1 ml of 5 mg/ml cardiolipin in round bottom flask. This mixture was dried under N2, resuspended in 4.25 ml buffer I (20 mM Tris/HCl pH 7.5, 50 mM KCl), and vortexed. […]

[6] = tested on: human mitochondrial F1/F0 ATPase (Complex V); assay: ATPase activity of immunocaptured F1/F0 ATPase, 96-well; format: biochemical
Procedure: Solubilization. Samples were thawed and placed in 25 mM HEPES pH 7.5 (to dissociate F1F0/IF1 interactions) or 10 mM […] (Anatrace) pH 6.5 (to retain F1F0/IF1 interactions), containing 0.4% (w/v) […], and the protease inhibitors leupeptin (0.5 μg/ml), pepstatin (0.5 μg/ml) and PMSF (1 mM). Mitochondria were solubilized at 5 mg/ml and whole cells were solubilized at 2×10^7 cells/ml. Samples were mixed well and then kept on ice for 30 minutes with occasional agitation. Insoluble material was then removed by centrifugation at 16,000×g for 20 minutes at 4° C.
Immunocapture. Assays were run in 96-well plates (Falcon Probind™) using 100 μl/well. […] To control for non-specific adsorption of ATPase, a non-specific mouse monoclonal antibody was used as a null capture mAb. Wells were then loaded with solubilized test samples diluted in TBS with 2.5% BSA, incubated for 2 hours at room temperature and then washed 4 times with TBS.
ATPase activity. ATPase reaction buffer (25 mM HEPES pH 7.5 or 10 mM MOPS pH 6.5, with 25 mM KCl, 5 mM MgCl2, 5 mM KCN and 2 mM ATP) was added at 100 μl/well and incubated for 3 hours at 37° C. The reaction was stopped and free Pi generated by ATP hydrolysis was detected essentially as described by Walker et al. (Meth. Enzymol., 260: 163-190, 1995) by addition of 0.5% ammonium molybendate in 0.7 M H2SO4 (42 μl/well) followed by 10% ascorbic acid (4 μl/well). After incubation for 30 minutes at room temperature to allow color development, absorbance was measured at 690 nm.
IF1 Stripping Conditions. IF1 was dissociated from previously immunocaptured IF1/F1F0 complexes by exposure to IF1 stripping buffer (30 mM Tris-sulfate pH 8, 250 mM KCl, 2 mM EDTA, 75 mM sucrose) for 30 minutes at 37° C. (Van Raaij et al., Biochem. 35: 15618-15625, 1996). The wells were then washed with either a pH 7.5 wash buffer (TBS) or a pH 6.5 wash buffer (10 mM MOPS pH 6.5, 150 mM NaCl and 1 mM MgCl2), and ATPase activity measured at either pH 7.5 or pH 6.5 as described above.
IF1 Addition Conditions. Recombinant human IF1 was obtained by PCR-based amplification of the appropriate gene from a human heart CDNA library (Clontech), cloning into pET15b (Novagen), transformation of E. coli and overexpression and purification of the His-tagged protein on a Ni column by standard protocols (Novagen). Isolated protein was diluted in pH 6.5 wash buffer (as described above) containing 1 mM ATP and incubated with previously immunocaptured F1F0. The wells were then washed with pH 6.5 wash buffer and ATPase activity measured at pH 6.5 as described above.

human mtDNA polymerase γ, sequence (P54098 whole entry): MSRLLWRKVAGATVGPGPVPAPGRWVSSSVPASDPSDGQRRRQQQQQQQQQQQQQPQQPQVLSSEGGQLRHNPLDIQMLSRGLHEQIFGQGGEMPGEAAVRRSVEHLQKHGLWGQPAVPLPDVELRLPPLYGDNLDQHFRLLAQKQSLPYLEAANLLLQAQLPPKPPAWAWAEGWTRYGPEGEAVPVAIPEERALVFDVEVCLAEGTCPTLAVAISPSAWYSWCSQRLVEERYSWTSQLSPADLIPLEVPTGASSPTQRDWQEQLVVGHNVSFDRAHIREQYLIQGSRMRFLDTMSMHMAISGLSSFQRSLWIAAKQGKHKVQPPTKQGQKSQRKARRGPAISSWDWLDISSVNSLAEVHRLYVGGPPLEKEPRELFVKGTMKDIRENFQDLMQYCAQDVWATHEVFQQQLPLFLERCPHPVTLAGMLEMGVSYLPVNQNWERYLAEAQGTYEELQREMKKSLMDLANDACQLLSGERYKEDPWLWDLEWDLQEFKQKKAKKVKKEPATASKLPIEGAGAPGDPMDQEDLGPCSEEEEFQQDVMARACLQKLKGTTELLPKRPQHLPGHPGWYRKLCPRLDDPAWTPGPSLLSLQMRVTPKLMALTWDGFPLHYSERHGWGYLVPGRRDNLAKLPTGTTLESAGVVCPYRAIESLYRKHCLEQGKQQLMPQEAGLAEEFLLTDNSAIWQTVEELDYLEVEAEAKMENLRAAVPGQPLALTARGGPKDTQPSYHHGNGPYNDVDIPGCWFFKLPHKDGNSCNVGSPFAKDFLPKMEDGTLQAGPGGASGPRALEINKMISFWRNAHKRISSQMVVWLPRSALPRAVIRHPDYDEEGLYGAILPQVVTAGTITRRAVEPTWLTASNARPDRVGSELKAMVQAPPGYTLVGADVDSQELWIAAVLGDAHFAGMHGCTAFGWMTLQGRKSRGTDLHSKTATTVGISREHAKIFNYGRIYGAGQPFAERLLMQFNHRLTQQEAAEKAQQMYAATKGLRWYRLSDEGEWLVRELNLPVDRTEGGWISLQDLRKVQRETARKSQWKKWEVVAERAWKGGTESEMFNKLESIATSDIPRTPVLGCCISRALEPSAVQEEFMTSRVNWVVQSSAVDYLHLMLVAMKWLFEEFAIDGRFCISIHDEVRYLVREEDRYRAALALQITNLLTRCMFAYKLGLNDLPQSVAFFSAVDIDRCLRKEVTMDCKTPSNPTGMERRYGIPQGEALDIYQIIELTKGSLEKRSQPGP
Complex I, sequence (P49821 21-464): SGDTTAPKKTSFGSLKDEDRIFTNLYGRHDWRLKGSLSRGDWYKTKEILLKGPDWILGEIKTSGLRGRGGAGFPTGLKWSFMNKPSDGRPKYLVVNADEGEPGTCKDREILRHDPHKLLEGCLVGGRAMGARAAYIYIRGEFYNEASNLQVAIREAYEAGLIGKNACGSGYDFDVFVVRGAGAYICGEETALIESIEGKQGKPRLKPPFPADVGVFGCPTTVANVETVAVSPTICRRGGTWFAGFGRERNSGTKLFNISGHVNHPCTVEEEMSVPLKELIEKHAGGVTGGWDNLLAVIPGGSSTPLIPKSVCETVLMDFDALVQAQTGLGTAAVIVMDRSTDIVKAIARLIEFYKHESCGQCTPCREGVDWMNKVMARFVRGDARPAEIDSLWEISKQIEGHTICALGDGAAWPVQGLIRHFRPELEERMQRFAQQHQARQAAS
Complex I, sequence (P56556 whole entry): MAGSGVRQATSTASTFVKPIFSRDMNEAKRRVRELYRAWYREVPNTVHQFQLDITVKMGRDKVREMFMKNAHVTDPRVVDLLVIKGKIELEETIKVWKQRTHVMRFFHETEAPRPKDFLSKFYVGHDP

Q: For `Nc1ccn([C@H]2CC[C@@H](CO)O2)c(=O)n1` [DDC, zalcitabine], which “depletion of mtDNA from fibroblasts” value [1] is on record?
A: Its value is “within three population doublings”.

Q: What about the “inhibition of isolated human mtDNA polymerase γ (hierarchy DDC≧DDI≧D4T≧3TC≧AZT≧ABV)” value (human mtDNA polymerase γ) of the same molecule?
A: The value was “inhibited most dramatically”.

Q: What does the source list for Complex V (F1/F0 ATPase), human?
A: ATP hydrolysis activity [2]: the enzyme could be greatly activated (>10-fold) by conditions that strip the IF1 from the protein; ATP hydrolysis activity [3]: addition of recombinant IF1, which reduced the rate of ATP hydrolysis to that before stripping

Q: Which “inhibition of oxidase activity in the Complex IV capture zone” value (Complex IV) does the source give for `[N-]=[N+]=[N-]` [azide] here?
A: Its value is “near complete inhibition”.

Q: Which “inhibition of Complex IV” value [4] does the source give for `O=NOO` [peroxynitrite] here?
A: The value was ~50%.

Q: With `c1ccc2c(c1)[I+]c1ccccc1-2` [DPI, diphenyleneiodonium] as the molecule, how does the “effect on Complex I activity dipstick signal” value (Complex I) read?
A: The value was “reduced signal”.

Q: For `C=C(C)[C@H]1Cc2c(ccc3c2O[C@@H]2COc4cc(OC)c(OC)cc4[C@@H]2C3=O)O1` [rotenone], which “fraction of immunocaptured NADH:UQ1 oxidoreductase activity sensitive to inhibition” value [5] is on record?
A: Its value is “approximately 30%”.

B1: recombinant IF1: His-tagged recombinant human inhibitor protein of F1/F0 ATPase expressed in E. coli (protein)
chain: GSDQSENVDRGAGSIREAGGAFGKREQAEEERYFRAQSREQLAALKKHHEEEIVHHKKEIERLQKEIERHKQKIKMLKHDD
modifications: left off: small tags and cut ends
Q: What does the source list for B1?
A: effect on stripped F1/F0 ATPase from GM00028 and MRC5 cells ([6]; 5 μg/ml (FIG. 9)): inhibited; effect on ATP hydrolysis of IF1-stripped immunocaptured F1/F0 ATPase ([6]; human heart mitochondria, assayed at pH 6.5 (FIG. 6)): reduced the rate of ATP hydrolysis to that before stripping
